T1: CD79B protein on the surface of DoHH2 cells (Homo sapiens, UniProt P40259)
T1 construct: endogenous in cells; host or cells: DoHH2 (DOHH-2) cells
T1 sequence (P40259 29-229): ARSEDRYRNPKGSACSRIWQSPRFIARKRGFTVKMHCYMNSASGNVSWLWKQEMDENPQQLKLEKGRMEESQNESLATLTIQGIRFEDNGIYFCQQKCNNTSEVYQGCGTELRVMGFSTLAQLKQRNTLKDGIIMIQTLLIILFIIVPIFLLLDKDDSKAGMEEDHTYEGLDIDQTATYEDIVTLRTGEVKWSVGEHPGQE
T1 sequence (P11912 33-226 partner): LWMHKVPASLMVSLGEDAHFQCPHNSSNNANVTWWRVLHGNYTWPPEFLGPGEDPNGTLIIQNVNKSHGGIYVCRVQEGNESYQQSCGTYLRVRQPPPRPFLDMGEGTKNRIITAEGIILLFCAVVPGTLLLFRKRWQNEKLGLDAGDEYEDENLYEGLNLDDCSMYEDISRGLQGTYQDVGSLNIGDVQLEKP

T2: human CD79B (Homo sapiens, UniProt P40259)
T2 sequence (P40259 29-159 limits assumed): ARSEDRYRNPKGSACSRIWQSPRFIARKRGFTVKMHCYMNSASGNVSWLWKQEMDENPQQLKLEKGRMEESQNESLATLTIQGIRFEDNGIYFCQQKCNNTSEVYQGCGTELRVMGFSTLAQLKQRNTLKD

B1: mAb015: anti-human CD79B mouse monoclonal antibody, clone 83B2G2; VH SEQ ID NO: 3, VL SEQ ID NO: 4 (antibody, listed as Mus musculus, V domains shown)
VH: QVQLQQSGAELARPGASVKLSCKASGSSFTSYGINWVKQRTGQGLEWIGEIFPRSGNTYYNEKFEGKATLTADKSSSTAYMELRSLTSEDSAVYFCAKGDLGDFDYWGQGTTLTVSS
VL: DFLMTQTPLSLPVRLGDQASISCRSSQSIVHSDGNTYFEWYLQKPGQSPKLLIYKVSNRFSGVPDRFSGSGSGTDFTLKISRVEAEDLGVYYCFQGSHVPWTFGGGTKLEIK

Assays:
SKBR3 = experiment: Test Example 2 in vitro cytotoxic activity (CTG), SKBR3; format: cell-based; details: SKBR3, 5 days; for IC50: Homo sapiens, SK-BR-3, 120 h
Protocol: (§1) In this experiment, the ATP content was determined using CTG to reflect the survival condition of the tumor cells.
(§2) Each of A549, SKBR3 and MDA-MB-468 was digested with pancreatin, resuspended in a culture medium and counted, and the cell density was adjusted to 2.2×10^4 cells/mL. 135 μL of cell suspension was added to each well in columns 2 to 11 of a 96-well plate, and column 12 was set as blank control. The cells were cultured in an incubator at 37° C. with 5% CO2 for 24 h.
(§3) a) Stock solution preparation: the drug was dissolved in DMSO to obtain a stock solution at a concentration of 5 mM.
(§4) b) Plate 1: stock solution in column 1 was initially subjected to a 40-fold dilution, and 3-fold gradient dilutions were performed sequentially in columns 2 to 11. Column 12 was filled with DMSO.
(§5) c) Plate 2: 196 μL of the corresponding culture medium was added to columns 2 to 11, and 4 μL of culture medium was pipetted from columns 3 to 12 of the plate 1 to columns 2 to 11 of the plate 2. The culture medium was mixed well.
(§6) 15 μL of culture medium was pipetted from the plate 2 and added to the cells. The cells were continuously cultured in an incubator at 37° C. with 5% C02 for 5 days.
(§7) 2.4. CTG assay: the plate was taken out and allowed to equilibrate to room temperature. 75 μL of CTG was added to each well and reacted at room temperature for 10 min away from the light. The luminescence value was read using a microplate reader and IC50 was calculated. 2.5. Data Results

MDA-MB-468 = experiment: Test Example 2 in vitro cytotoxic activity (CTG), MDA-MB-468; format: cell-based; details: MDA-MB-468, 5 days; for IC50: Homo sapiens, 120 h
Protocol: as §1, §2, §3, §4, §5, §6, §7

A549 = experiment: Test Example 2 in vitro cytotoxic activity (CTG), A549; format: cell-based; details: A549, 5 days; for IC50: Homo sapiens, 120 h
Protocol: as §1, §2, §3, §4, §5, §6, §7

[1] = tested on: DOHH-2 cells highly expressing human CD79B protein; experiment: Endocytosis of anti-CD79B antibodies in DOHH-2 cells; format: cell-based
Protocol: In order to determine whether the CD79B antibodies of the present disclosure can be endocytosed into cells with human CD79B after binding to human CD79B, a cell endocytosis experiment was performed with DOHH-2 cells (DSMZ, ACC 47) highly expressing human CD79B protein to assess the endocytosis ability of the antibodies.
The cells were collected by low temperature centrifugation at 4° C. for 5 min at 1000 rpm during the experiment. The cells were resuspended in 10-15 mL of FACS buffer pre-cooled on ice. The FACS buffer was composed of phosphate buffered saline (PBS), pH 7.4, with 2% fetal bovine serum (FBS). Throughout the experiment, FACS buffer was pre-cooled on ice. The cells were counted and centrifuged, and added to a 96-well plate at 300,000 cells/well. After centrifugation, the supernatant was discarded, and 12.5 μg/mL Fc blocking solution (BD, Cat No.: 564220) was added at 100 μL/well. Blocking was performed at room temperature for 10 min. Then, 20 μg/mL test CD79B antibody was added to the corresponding wells, and the plate was incubated at 4° C. for 1 h away from the light. The plate was washed twice with a pre-cooled PBS buffer to remove unbound antibodies. A complete cell culture medium (RPMI 1640 medium with 10% fetal bovine serum) was added, and the plate was incubated at 37° C. with 5% CO2 for 0 h, 1 h, 2 h and 4 h. After centrifugation, the supernatant was discarded, 2% PFA buffer solution was added at 100 μL/well to resuspend the cells, and the plate was left to stand for 10 min. Then, the plate was washed 3 times with an FACS buffer, and 100 μL of secondary antibody solution (fluorescent labeled goat anti-human secondary antibody: diluted in a 1:250 ratio, 2 μg/mL, Biolegend, Cat #409304) was added. The plate was incubated at 4° C. for half an hour away from the light. A pre-cooled PBS buffer was added, and the supernatant was discarded after centrifugation at 4° C., which were repeated three times. The cells were resuspended in an FACS buffer at 200 μL/well and detected using a flow cytometer (BD FACS Calibur).

[2] = target: T1, CD79B protein on the surface of DoHH2 cells; experiment: FACS of anti-human CD79B hybridoma positive clones; format: binding
Protocol: 4) FACS screening The suspension of DoHH2 cells was centrifuged, resuspended in PBS containing 0.1% BSA, and counted. The test serum was added, and the cells were incubated at room temperature for 60 min and washed. Then Anti-Mouse IgG (Fc specific)-FITC secondary antibody was added, and the cells were incubated at room temperature for 30 min away from the light, washed three times, gently resuspended in PBS containing 0.1% BSA, and loaded on the machine for assay.
(§8) 5) Identification of hybridoma positive clones A plurality of specific antibodies against human CD79B antigen were obtained; and 17 strains of hybridomas having strongest binding force to ELISA and FACS in assays were taken for production and purification of antibodies. Specific antibodies against monkey CD79B antigen were also obtained; and 4 strains of hybridomas having strongest binding force to ELISA and FACS in assays were taken for production and purification of antibodies. Assay results of anti-monkey CD79B hybridoma positive clone cells by FACS are shown in Table 4. mIgG was used as negative control in the both assays.

[3] = target: T1, CD79B protein on the surface of DoHH2 cells; experiment: FACS of purified anti-human CD79B mouse monoclonal antibodies on DoHH2 cells; format: binding
Protocol: 3) Assay on anti-human CD79B mouse monoclonal antibodies by FACS The cell suspension of DoHH2 cells was centrifuged, resuspended in PBS containing 0.1% BSA, and counted. 100 μL of antibody diluted in a 1:10 ratio from 100 nM was added, and the cells were incubated at room temperature for 1 h and washed three times. Then Anti-Mouse IgG (Fc specific)-FITC secondary antibody was added, and the cells were incubated at room temperature for 30 min away from the light, washed three times, gently resuspended in PBS containing 0.1% BSA, and loaded on the machine for assay. […] The specific data are shown in FIGS. 9A and 9B, in which hIgG1 is a negative control antibody and SN8 is a positive control antibody. SN8 is an antibody (reference sequence source: US20170362318A) used in the antibody-drug conjugate polatuzumab vedotin developed by Roche pharmaceutical. Polatuzumab vedotin has been approved by the FDA for marketing.

human CD79B [4] = target: T2, human CD79B; experiment: ELISA of anti-human CD79B hybridoma positive clones; format: binding; set-up: the extracellular region (ECD) of human CD79B comprises 159 amino acids (Met1-Asp159); made in house; host or cells: 293F cells; details: hybridoma cell supernatant, read at 450 nm
Protocol: (§9) 3) ELISA screening A 96-well plate was coated with 1 μg/mL antigen at 50 μL/well and incubated in a refrigerator at 4° C. overnight. The next day, the coated antigen plate was washed once (washing solution: 1×PBST). After washing, the plate was blocked with 1% BSA blocking solution prepared in 1×PBST at 37° C. for 1 h. After washing the plate 3 times with 1×PBST, 50 μL of the test cell supernatant was added, and the plate was incubated in an incubator at 37° C. for 1 h. After washing the plate 3 times with 1×PBST, 100 μL of goat anti-mouse secondary antibody diluted in a 1:5000 ratio was added, and the plate was incubated in an incubator at 37° C. for 0.5 h. After washing the plate, TMB color development solutions A and B were mixed in a 1:1 ratio for color development. 15 min later, the color development reaction was stopped with 1 N hydrochloric acid. […] value was read at 450 nm on a Spectra Max M5 microplate reader.
as §8

human CD79B [5] = target: T2, human CD79B; experiment: ELISA of purified anti-human CD79B mouse monoclonal antibodies; format: binding; set-up: the extracellular region (ECD) of human CD79B comprises 159 amino acids (Met1-Asp159); made in house; host or cells: 293F cells; details: purified antibodies diluted 1:10 from 100 nM; FIG. 8
Protocol: as §9, with “2) Assay on anti-human CD79B mouse monoclonal antibodies by” for “3)”, “ELISA” for “ELISA screening”, “antibody diluted in a 1:10 ratio from 100 nM” for “the test cell supernatant”

Molecule | IC50 (SKBR3) [nM] | Maximum inhibition (%) (SKBR3) | IC50 (MDA-MB-468) [nM] | Maximum inhibition (%) (MDA-MB-468) | Maximum inhibition (%) (A549) | IC50 (A549) [nM] | endocytosis by DOHH-2 cells at 4° C. ([1]; 20 μg/mL antibody, incubation at 4° C.) | endocytosis by DOHH-2 cells at 37° C. after 1 h ([1]; 20 μg/mL antibody, incubation at 37° C., 1 h) | endocytosis, overall judgement ([1]; DOHH-2 cells) | time at which antibody endocytosis reaches a maximum ([1]; incubation at 37° C.) [h] | Mean fluorescence value [2] | FACS binding force ([3]; antibodies diluted 1:10 from 100 nM, FIGS. 9A, 9B) | FACS binding force compared with SN8 ([3]; positive control antibody SN8) | Results (OD450) (human CD79B [4]) | ELISA binding force (human CD79B [5])
C=C1C[C@@H]2CC[C@@]34C[C@H]5O[C@H]6[C@@H](O3)[C@H]3O[C@H](CC[C@@H]3O[C@H]6[C@H]5O4)CC(=O)C[C@@H]3[C@@H](OC)[C@@H](C[C@H](O)CNC)O[C@H]3C[C@H]3O[C@@H](CC[C@@H]1O2)C[C@@H](C)C3=C [E-305] | 0.571 | 96.42 | 1.17 | 88.53 | 61.27 | 2.1 | – | – | – | – | – | – | – | – | –
C=C1C[C@@H]2CC[C@@]34C[C@H]5O[C@H]6[C@@H](O3)[C@H]3O[C@H](CC[C@@H]3O[C@H]6[C@H]5O4)CC(=O)C[C@@H]3[C@@H](OC)[C@@H](C[C@@H](CNC)OC)O[C@H]3C[C@H]3O[C@@H](CC[C@@H]1O2)C[C@@H](C)C3=C [D-2] | 1.09 | 96.85 | 1.88 | 89.43 | 62.09 | 3.08 | – | – | – | – | – | – | – | – | –
SN8 [reference compound] | – | – | – | – | – | – | cannot be endocytosed by DOHH-2 cells | most of the antibodies are already endocytosed by DOHH-2 cells | good endocytosis | 4 | – | – | – | – | –
C=C1C[C@@H]2CC[C@@]34C[C@H]5O[C@H]6[C@@H](O3)[C@H]3O[C@H](CC[C@@H]3O[C@H]6[C@H]5O4)CC(=O)C[C@@H]3[C@@H](OC)[C@@H](C[C@H](O)CO)O[C@H]3C[C@H]3O[C@@H](CC[C@@H]1O2)C[C@@H](C)C3=C [E1-30] | 0.166 | 96.15 | 0.36 | 90.49 | 62.46 | 0.781 | – | – | – | – | – | – | – | – | –
B1 | – | – | – | – | – | – | – | – | – | – | 10036 | strongest FACS binding force | superior binding force to SN8 | 3.41 | strongest ELISA binding force

Source: US12642862B2, “Anti-CD79B antibody-drug conjugate, and preparation method therefor and pharmaceutical use thereof” (TUOJIE BIOTECH (SHANGHAI) CO., LTD., priority 2020, dated 2026)
